Laboratory results as given in the OligoGym collection.
HELM strings list units from the 5' end as sugar, base in round brackets, then linkage (d deoxyribose, r ribose, m 2'-O-methyl, p phosphodiester). Strings are as the collection lists them; they lack the last nucleoside at the 3' end of the tested compound. [moe] = 2'-O-(2-methoxyethyl) (MOE); [sp] = phosphorothioate linkage; [m5C] = 5-methylcytosine

These substances were tested against ATXN2 (assay: mouse, dose not given). Conditions: ASO.

Q: How did the 3 h FOB score turn out when “RNA1{[moe](T)[sp].[moe](G)p.[moe](G)p.[moe](A)p.[moe](T)p.d(T)[sp].d([m5C])[sp].d(T)[sp].d(G)[sp].d(T)[sp].d(A)[sp].d([m5C])[sp].d(T)[sp].d(T)[sp].d(T)[sp].[moe](T)p.[moe]([m5C])p.[moe](T)[sp].[moe]([m5C])}$$$$ (last 3' nucleoside missing)” was run?
A: Its 3 h FOB score is 5.25 score 0-7.

Q: How did the 3 h FOB score turn out when “RNA1{[moe](T)[sp].[moe](G)p.[moe](G)p.[moe](A)p.d(T)[sp].d(T)[sp].d([m5C])[sp].d(T)[sp].d(G)[sp].d(T)[sp].d(A)[sp].d([m5C])[sp].d(T)[sp].d(T)[sp].[moe](T)p.[moe](T)p.[moe]([m5C])p.[moe](T)[sp].[moe]([m5C])}$$$$ (last 3' nucleoside missing)” was run?
A: Its 3 h FOB score is 3.5 score 0-7.

Q: How did the 3 h FOB score turn out when “RNA1{[moe](T)[sp].[moe](G)p.[moe](G)p.[moe](T)p.[moe](G)[sp].d(G)[sp].d(T)[sp].d(G)[sp].d(T)[sp].d(G)[sp].d([m5C])[sp].d(G)[sp].d([m5C])[sp].[moe](A)p.[moe](T)p.[moe](G)[sp].[moe](T)}$$$$ (last 3' nucleoside missing)” was run?
A: Its 3 h FOB score is 6.25 score 0-7.

Q: How did the 3 h FOB score turn out when “RNA1{[moe](T)[sp].[moe](G)p.[moe](G)p.[moe](T)p.[moe](G)p.[moe](G)p.d(T)[sp].d(G)[sp].d(T)[sp].d(G)[sp].d([m5C])[sp].d(G)[sp].d([m5C])[sp].d(A)[sp].d(T)[sp].d(G)[sp].[moe](T)p.[moe](A)[sp].[moe](G)}$$$$ (last 3' nucleoside missing)” was run?
A: The 3 h FOB score was 7 score 0-7.

Q: “RNA1{[moe](T)[sp].[moe](G)p.[moe](G)p.[moe](T)p.[moe](G)p.d(G)[sp].d(T)[sp].d(G)[sp].d(T)[sp].d(G)[sp].d([m5C])[sp].d(G)[sp].d([m5C])[sp].d(A)[sp].d(T)[sp].[moe](G)p.[moe](T)p.[moe](A)[sp].[moe](G)}$$$$ (last 3' nucleoside missing)” was tested. Which 3 h FOB score did it give?
A: The 3 h FOB score was 6.5 score 0-7.

Q: For “RNA1{[moe](T)[sp].[moe](G)p.[moe](G)p.[moe](T)p.[moe](T)p.d([m5C])[sp].d([m5C])[sp].d(T)[sp].d(T)[sp].d(A)[sp].d([m5C])[sp].d(A)[sp].d(A)[sp].d(T)[sp].d(T)[sp].[moe](A)p.[moe](T)p.[moe]([m5C])[sp].[moe](T)}$$$$ (last 3' nucleoside missing)”, which 3 h FOB score is on record?
A: Its 3 h FOB score is 0 score 0-7.

Q: Which 3 h FOB score does the source give for “RNA1{[moe](T)[sp].[moe](G)p.[moe](G)p.[moe](T)p.d(G)[sp].d(G)[sp].d(T)[sp].d(G)[sp].d(T)[sp].d(G)[sp].d([m5C])[sp].d(G)[sp].d([m5C])[sp].d(A)[sp].[moe](T)p.[moe](G)p.[moe](T)p.[moe](A)[sp].[moe](G)}$$$$ (last 3' nucleoside missing)” here?
A: Its 3 h FOB score is 6.75 score 0-7.

Q: For “RNA1{[moe](T)[sp].[moe](G)p.[moe](T)p.[moe](A)[sp].[moe]([m5C])[sp].d(T)[sp].d(T)[sp].d([m5C])[sp].d(A)[sp].d([m5C])[sp].d(A)[sp].d(T)[sp].d(T)[sp].d(T)[sp].d(G)[sp].[moe](G)p.[moe](A)p.[moe](G)[sp].[moe]([m5C])}$$$$ (last 3' nucleoside missing)”, which 3 h FOB score is on record?
A: Its 3 h FOB score is 3 score 0-7.

Q: “RNA1{[moe](T)[sp].[moe](G)p.[moe](T)p.[moe](A)p.[moe]([m5C])[sp].d(T)[sp].d(T)[sp].d(T)[sp].d(T)[sp].d([m5C])[sp].d(T)[sp].d([m5C])[sp].d(A)[sp].[moe](T)p.[moe](G)p.[moe](T)[sp].[moe](G)}$$$$ (last 3' nucleoside missing)” was tested. Which 3 h FOB score did it give?
A: Its 3 h FOB score is 0 score 0-7.

Q: How did the 3 h FOB score turn out when “RNA1{[moe](T)[sp].[moe](G)p.[moe](T)p.[moe](A)p.[moe]([m5C])[sp].d(T)[sp].d(T)[sp].d([m5C])[sp].d(A)[sp].d([m5C])[sp].d(A)[sp].d(T)[sp].d(T)[sp].[moe](T)p.[moe](G)p.[moe](G)[sp].[moe](A)}$$$$ (last 3' nucleoside missing)” was run?
A: Its 3 h FOB score is 3.5 score 0-7.
